Molecular target: T1, muscarinic M1 receptor (Homo sapiens, UniProt P11229)
T1 sequence (P11229 1-460): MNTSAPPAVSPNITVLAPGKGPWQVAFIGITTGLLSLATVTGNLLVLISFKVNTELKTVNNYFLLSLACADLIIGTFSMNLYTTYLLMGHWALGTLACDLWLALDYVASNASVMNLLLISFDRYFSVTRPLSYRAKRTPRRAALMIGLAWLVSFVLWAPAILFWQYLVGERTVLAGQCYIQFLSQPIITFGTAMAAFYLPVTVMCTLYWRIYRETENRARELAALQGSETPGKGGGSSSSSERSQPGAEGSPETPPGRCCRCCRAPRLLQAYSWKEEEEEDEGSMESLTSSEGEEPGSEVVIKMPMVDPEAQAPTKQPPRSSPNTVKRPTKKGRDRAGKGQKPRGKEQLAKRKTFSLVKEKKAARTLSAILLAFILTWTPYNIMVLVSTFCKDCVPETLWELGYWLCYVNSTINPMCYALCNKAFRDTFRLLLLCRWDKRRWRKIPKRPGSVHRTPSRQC
Assay: Allosteric potency EC50 for muscarinic M1 receptor (CHO pCRE-Luc reporter assay)
Type: cell-based
Settings: in presence of EC20 of acetylcholine; CHO cells, luciferase reporter, 4 hours
Experimental: Determination of Allosteric Potency EC50 Values for Muscarinic M1 Receptor:
A stable CHO cell line expressing recombinant human Muscarinic M1 receptor and pCRE-Luc reporter system was used for cell-based assay. The assay offers a non-radioactive based approach to determine binding of a compound to GPCRs. In this specific assay, the level of intracellular cyclic AMP which is modulated by activation or inhibition of the receptor is measured. The recombinant cells harbor luciferase reporter gene under the control of cyclic AMP response element.
The above cells were grown in 96 well clear bottom white plates in Hams F12 medium containing 10% fetal bovine serum (FBS). Prior to the addition of compounds or standard agonist, cells were serum starved overnight. Increasing concentrations of test compounds were added along with EC20 of acetylcholine in OptiMEM medium to the cells. The incubation was continued at 37° C. in CO2 incubator for 4 hours. Medium was removed and cells were washed with phosphate buffered saline. The cells were lysed and luciferase activity was measured in a Luminometer. Luminescence units were plotted against the compound concentrations using Graphpad software. EC50 values of the compounds were defined as the concentration required in stimulating the luciferase activity by 50% in presence of EC20 of acetylcholine and the results are provided in table 1.

SMILES	EC50 [nM]
COc1ccc(Cc2cc(C(=O)N[C@H]3CCCC[C@@H]3O)nc3c2ccn3C)cn1 [Example 2, N-[(1S,2S)-2-Hydroxycyclohexyl]-4-(2-methoxypyridin-5-ylmethyl)-1-methyl-1H-pyrrolo[2,3-b]pyridine-6-carboxamide]	1080
Cn1ccc2c(Cc3ccc(F)nc3)cc(C(=O)N[C@H]3CCCC[C@@H]3O)nc21 [Example 3, N-[(1S,2S)-2-Hydroxycyclohexyl]-4-(2-fluoropyridin-5-ylmethyl)-1-methyl-1H-pyrrolo[2,3-b]pyridine-6-carboxamide]	977
Cn1ccc2c(Cc3ccc(F)cc3)cc(C(=O)N[C@H]3CCCC[C@@H]3O)nc21 [Example 4, N-[(1S,2S)-2-Hydroxycyclohexyl]-4-(4-fluorobenzyl)-1-methyl-1H-pyrrolo[2,3-b]pyridine-6-carboxamide]	811
Cn1ccc2c(Cc3ccc(-c4cscn4)cc3)cc(C(=O)N[C@H]3CCCC[C@@H]3O)nc21 [Example 5, N-[(1S,2S)-2-Hydroxycyclohexyl]-4-(4-thiazol-4-ylbenzyl)-1-methyl-1H-pyrrolo[2,3-b]pyridine-6-carboxamide]	130
Cn1ccc2c(Cc3ccc(-n4cccn4)cc3)cc(C(=O)N[C@H]3CCCC[C@@H]3O)nc21 [Example 6, N-[(1S,2S)-2-Hydroxycyclohexyl]-4-(4-pyrazol-1-ylbenzyl)-1-methyl-1H-pyrrolo[2,3-b]pyridine-6-carboxamide]	15
Cn1cc(-c2ccc(Cc3cc(C(=O)N[C@H]4CCCC[C@@H]4O)nc4c3ccn4C)cc2)cn1 [Example 7, N-[(1S,2S)-2-Hydroxycyclohexyl]-4-[4-(1-methyl-1H-pyrazol-4-yl)benzyl]-1-methyl-1H-pyrrolo[2,3-b]pyridine-6-carboxamide]	8
Cn1cc(-c2ccc(Cc3cc(C(=O)N[C@H]4CCCC[C@@H]4O)nc4c3ccn4C)c(F)c2)cn1 [Example 8, N-[(1S,2S)-2-Hydroxycyclohexyl]-4-[2-fluoro-4-(1-methyl-1H-pyrazol-4-yl)benzyl]-1-methyl-1H-pyrrolo[2,3-b]pyridine-6-carboxamide]	17
Cc1ccc(Cc2cc(C(=O)N[C@H]3CCCC[C@@H]3O)nc3c2ccn3C)cn1 [Example 9, N-[(1S,2S)-2-Hydroxycyclohexyl]-4-(2-methylpyridin-5-ylmethyl)-1-methyl-1H-pyrrolo[2,3-b]pyridine-6-carboxamide]	1570
Cn1ccc2c(Cc3cc(F)ncc3F)cc(C(=O)N[C@H]3CCCC[C@@H]3O)nc21 [Example 11, N-[(1S,2S)-2-Hydroxycyclohexyl]-4-(2,5-difluoropyridin-4-ylmethyl)-1-methyl-1H-pyrrolo[2,3-b]pyridine-6-carboxamide]	1720
Cn1ccc2c(Cc3ccc4ncsc4c3)cc(C(=O)N[C@H]3CCCC[C@@H]3O)nc21 [Example 12, N-[(1S,2S)-2-Hydroxycyclohexyl]-4-(benzothiazol-6-ylmethyl)-1-methyl-1H-pyrrolo[2,3-b]pyridine-6-carboxamide]	306
Cn1ccc2c(Cc3ccc(-c4ccc(F)nc4)nc3)cc(C(=O)N[C@H]3CCCC[C@@H]3O)nc21 [Example 13, N-[(1S,2S)-2-Hydroxycyclohexyl]-4-(2′-fluoro-[2,5]bipyridinyl-5-ylmethyl)-1-methyl-1H-pyrrolo[2,3-b]pyridine-6-carboxamide]	617
Cn1ccc2c(Cc3ccncc3)cc(C(=O)N[C@H]3CCCC[C@@H]3O)nc21 [Example 14, N-[(1S,2S)-2-Hydroxycyclohexyl]-4-(pyridin-4-ylmethyl)-1-methyl-1H-pyrrolo[2,3-b]pyridine-6-carboxamide]	891
Cn1cc(-c2ccc(Cc3cc(C(=O)N[C@H]4CCCC[C@@H]4O)nc4c3ccn4C)cn2)cn1 [Example 15, N-[(1S,2S)-2-Hydroxycyclohexyl]-4-[2-(1-methyl-1H-pyrazol-4-yl)pyridin-5-ylmethyl]-1-methyl-1H-pyrrolo[2,3-b]pyridine-6-carboxamide]	38
